Patent US9476017B2, “Compositions and methods for cleaning, disinfecting, and sanitizing that are effluent neutral” (Diversey, Inc, priority 2012, dated 2016)
Where two headings read alike, the source gives them in different places.

How the values were obtained:
Saccharomyces cerevisiae = experiment: Yeast growth test (Example 6); format: cell-based; conditions: supplement at concentrations above 10 ppm; 30° C.; compared to control without supplements
Method: These experiments were used to investigate whether potential residues of cleaning formulations described herein have any impact on the growth or metabolism of a fermentative yeast cell. Saccharomyces cerevisiae was selected as a typical member of fermenting yeasts. Malt extract agar tubes with an angular surface were used to grow starter cultures. Two globules that were covered with Saccaromyces cerevisiae (from a freeze culture collection DSM 1333) were streaked onto an agar surface and incubated at 30° C. for 3 days. Yeast colonies were grown, transferred to liquid growth media and incubated for 15-20 hours at 30° C. A second transfer was conducted into fresh liquid medium. The grown medium was transferred into closed, sterile tubes and centrifuged for 20 minutes at 8000 G. The liquid was decanted and the pellets collected in 10 mL of sterile Ringer solution. A Thoma Hemocytometer was prepared. Cells of 4 squares across were counted. Counted numbers from 4 squares were averaged and cell concentrations were calculated. The concentration of cells in the original mixture=number of cells counted*10^6=cells/mL. Dilutions were made to reach final cell concentration of 1×10^6/mL in culture medium. […] Start extinction was measured at 578 nm with help of a spectrophotometer. […] Every 1 to 2 hours samples were taken and extinctions were measured. […] The difference ∂ of extinction to start was calculated. […]

[1] = Method: Formulation B was combined with three sanitizing additives hydrogen peroxide (i.e., “peroxide”), peracetic acid (PAA) and chlorine dioxide. Testing was conducted at 80° C. to simulate CIP tank conditions. Ferment soil was added to the tests to further simulate real conditions.
fermentative wild yeasts = experiment: Efficiency against fermentative wild yeasts; format: cell-based; conditions: all temperatures, 20 minutes or longer
Method: (§1) Testing was done according to test protocols EN 1276 and EN 1650. Formulation B and Formulation D (a peracetic acid-based formulation) were tested separately and in combination. Formulation B was also tested in combination with hydrogen peroxide. Tests were run at 20°, 40° C. and 60° C. in the presence of 1% ferment soil at contact times of 10, 20 and 30 minutes. Kill rates are expressed as log reductions.
At 20° C. and 40° C., 0.28% peroxide […] was ineffective on Lactobacilli. The higher kill rate at 60° C. is mainly due to temperature.

Lactobacillus brevis = experiment: Efficiency against Lactobacillus brevis, EN 1276; format: cell-based
Method: as §1

## [Na+].[OH-] [Caustic Soda, sodium hydroxide]
Saccharomyces cerevisiae
  S. cerevisiae cell growth: significantly decreased or even inhibited

## [O][Cl+][O-] [Chlorine dioxide, chlorine dioxide]
[1]; 10 ppm, 80° C., ferment soil
  stability: very unstable

## CC(=O)OO [Peracetic acid, peracetic acid]
Fermentative wild yeasts; 0.15% (225 ppm PAA)
  effectiveness: very effective
Fermentative wild yeasts; 0.3% (450 ppm)
  effectiveness: very effective
[1]; in Formulation B and ferment soil, versus high alkaline solutions
  stability: better stability
[1]; in the presence of Formulation B, 80° C., ferment soil
  half life: > 30 min
Lactobacillus brevis; 0.3% (450 ppm), all temperatures, 20 minutes or longer
  effectiveness: very effective

## OO [hydrogen peroxide]
Lactobacillus brevis; 0.28% (1000 ppm), at 20° C. and 40° C.
  effectiveness: ineffective
Lactobacillus brevis; 1.4% (5000 ppm), at 40° C. and 20 minute contact times
  effectiveness: became effective
